Experimental data as given in patent US12304890B2, “R-type pyridyloxycarboxylic acid, salt and ester derivative thereof, and preparation method therefor, and herbicidal composition and application thereof” (Qingdao Kingagroot Chemical Compound Co., Ltd., priority 2018, dated 2025).

How the values were obtained:
Format in all cases: in vivo
Echinochloa crusgalli = test: Post-emergence test experiment, Echinochloa crusgalli; conditions: 1000 g a.i./ha, 3 weeks in greenhouse, fresh weight inhibition
How it was run: (§1)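 Seeds sown under 0.5-2 cm soil; sprayed post-emergence at 2-3 leaves with acetone/tween-80 solution plus 1.5 L/ha methyl oleate EC; greenhouse 3 wk; % fresh weight inhibition.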

Digitaria sanguinalis = test: Post-emergence test experiment, Digitaria sanguinalis; conditions: 1000 g a.i./ha, 3 weeks in greenhouse, fresh weight inhibition
How it was run: as §1

[1] = test system: Monocotyledonous and dicotyledonous weed seeds and main crop seeds; test: Post-emergence test experiment, other weeds and crops (Table 4, 1000 g a.i./ha); conditions: 3 weeks in greenhouse, fresh weight inhibition
How it was run: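 Growth inhibition is scored on fresh weight. Spray solutions were made in acetone with tween-80, diluted in water, plus 1.5 L/ha methyl oleate emulsible concentrate. Plants from greenhouse-grown weed and crop seeds were treated post-emergence at 2-3 leaves, 2 weeks after sowing.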

| SMILES | Activity level (growth inhibition rate), Echinochloa crusgalli (Echinochloa crusgalli) | Activity level (growth inhibition rate), Digitaria sanguinalis (Digitaria sanguinalis) | Activity level (growth inhibition rate), Abutilon theophrasti Medic. [1] | Activity level (growth inhibition rate), Galium aparine [1] | Activity level (growth inhibition rate), Monochoria Vaginalis [1] |
| --- | --- | --- | --- | --- | --- |
| Cc1cn(C)nc1SC(=O)[C@@H](C)Oc1nc(F)c(Cl)c(N)c1Cl [Compound 2-365] | 5 (Level 5: the growth inhibition rate is greater than 85%) | 5 (Level 5: the growth inhibition rate is greater than 85%) | 5 (Level 5: the growth inhibition rate is greater than 85%) | 5 (Level 5: the growth inhibition rate is greater than 85%) | 5 (Level 5: the growth inhibition rate is greater than 85%) |
| CC(Oc1nc(F)c(Cl)c(N)c1Cl)C(=O)SCc1cccc(C(F)(F)F)c1 (centres unmarked) [Compound 2-330] | 5 (Level 5: the growth inhibition rate is greater than 85%) | 5 (Level 5: the growth inhibition rate is greater than 85%) | 5 (Level 5: the growth inhibition rate is greater than 85%) | 5 (Level 5: the growth inhibition rate is greater than 85%) | 5 (Level 5: the growth inhibition rate is greater than 85%) |
| CC(Oc1nc(F)c(Cl)c(N)c1Cl)C(=O)SCc1ccccc1Cl (centres unmarked) [Compound 2-315] | 5 (Level 5: the growth inhibition rate is greater than 85%) | 5 (Level 5: the growth inhibition rate is greater than 85%) | 5 (Level 5: the growth inhibition rate is greater than 85%) | 5 (Level 5: the growth inhibition rate is greater than 85%) | 5 (Level 5: the growth inhibition rate is greater than 85%) |
| CC(Oc1nc(F)c(Cl)c(N)c1Cl)C(=O)SCc1ccccc1 (centres unmarked) [Compound 2-301] | 5 (Level 5: the growth inhibition rate is greater than 85%) | 5 (Level 5: the growth inhibition rate is greater than 85%) | 5 (Level 5: the growth inhibition rate is greater than 85%) | 5 (Level 5: the growth inhibition rate is greater than 85%) | 5 (Level 5: the growth inhibition rate is greater than 85%) |
| CC(Oc1nc(F)c(Cl)c(N)c1Cl)C(=O)SCc1ccccc1Br (centres unmarked) [Compound 2-321] | 5 (Level 5: the growth inhibition rate is greater than 85%) | 5 (Level 5: the growth inhibition rate is greater than 85%) | 5 (Level 5: the growth inhibition rate is greater than 85%) | 5 (Level 5: the growth inhibition rate is greater than 85%) | 5 (Level 5: the growth inhibition rate is greater than 85%) |
| CC(Oc1nc(F)c(Cl)c(N)c1Cl)C(=O)SCc1ccccc1C(F)(F)F (centres unmarked) [Compound 2-328] | 5 (Level 5: the growth inhibition rate is greater than 85%) | 5 (Level 5: the growth inhibition rate is greater than 85%) | 5 (Level 5: the growth inhibition rate is greater than 85%) | 5 (Level 5: the growth inhibition rate is greater than 85%) | 5 (Level 5: the growth inhibition rate is greater than 85%) |
| C[C@@H](Oc1nc(F)c(Cl)c(N)c1Cl)C(=O)SCc1cccc(C#N)c1 [Compound 2-336] | 5 (Level 5: the growth inhibition rate is greater than 85%) | 5 (Level 5: the growth inhibition rate is greater than 85%) | 5 (Level 5: the growth inhibition rate is greater than 85%) | 5 (Level 5: the growth inhibition rate is greater than 85%) | 5 (Level 5: the growth inhibition rate is greater than 85%) |
| C[C@@H](Oc1nc(F)c(Cl)c(N)c1Cl)C(=O)SCc1cccnc1 [Compound 2-347] | 5 (Level 5: the growth inhibition rate is greater than 85%) | 5 (Level 5: the growth inhibition rate is greater than 85%) | 5 (Level 5: the growth inhibition rate is greater than 85%) | 5 (Level 5: the growth inhibition rate is greater than 85%) | 5 (Level 5: the growth inhibition rate is greater than 85%) |
| CC(Oc1nc(F)c(Cl)c(N)c1Cl)C(=O)OCc1cccc(C(F)(F)F)c1 (centres unmarked) [Compound 2-329] | 5 (Level 5: the growth inhibition rate is greater than 85%) | 5 (Level 5: the growth inhibition rate is greater than 85%) | 5 (Level 5: the growth inhibition rate is greater than 85%) | 5 (Level 5: the growth inhibition rate is greater than 85%) | 5 (Level 5: the growth inhibition rate is greater than 85%) |
| C[C@@H](Oc1nc(F)c(Cl)c(N)c1Cl)C(=O)SCc1ccncc1 [Compound 2-345] | 5 (Level 5: the growth inhibition rate is greater than 85%) | 5 (Level 5: the growth inhibition rate is greater than 85%) | 5 (Level 5: the growth inhibition rate is greater than 85%) | 5 (Level 5: the growth inhibition rate is greater than 85%) | 5 (Level 5: the growth inhibition rate is greater than 85%) |
| C[C@@H](Oc1nc(F)c(Cl)c(N)c1Cl)C(=O)OCC(F)(F)F [Compound 2-281] | 5 (Level 5: the growth inhibition rate is greater than 85%) | 5 (Level 5: the growth inhibition rate is greater than 85%) | 5 (Level 5: the growth inhibition rate is greater than 85%) | 5 (Level 5: the growth inhibition rate is greater than 85%) | 5 (Level 5: the growth inhibition rate is greater than 85%) |
| C[C@@H](Oc1nc(F)c(Cl)c(N)c1Cl)C(=O)OCC(F)F [Compound 2-279] | 5 (Level 5: the growth inhibition rate is greater than 85%) | 5 (Level 5: the growth inhibition rate is greater than 85%) | 5 (Level 5: the growth inhibition rate is greater than 85%) | 5 (Level 5: the growth inhibition rate is greater than 85%) | 5 (Level 5: the growth inhibition rate is greater than 85%) |
| COC(=O)[C@@H](C)Oc1nc(F)c(Cl)c(NC(C)=O)c1Cl [Compound 2-377] | 5 (Level 5: the growth inhibition rate is greater than 85%) | 5 (Level 5: the growth inhibition rate is greater than 85%) | 5 (Level 5: the growth inhibition rate is greater than 85%) | 5 (Level 5: the growth inhibition rate is greater than 85%) | 5 (Level 5: the growth inhibition rate is greater than 85%) |
| CC(Oc1nc(F)c(Cl)c(N)c1Cl)C(=O)SCc1cccc(F)c1 (centres unmarked) [Compound 2-311] | 5 (Level 5: the growth inhibition rate is greater than 85%) | 5 (Level 5: the growth inhibition rate is greater than 85%) | 5 (Level 5: the growth inhibition rate is greater than 85%) | 5 (Level 5: the growth inhibition rate is greater than 85%) | 5 (Level 5: the growth inhibition rate is greater than 85%) |
| C=CCOC(=O)C(C)Oc1nc(F)c(Cl)c(N)c1Cl (centres unmarked) [Compound 2-273] | 5 (Level 5: the growth inhibition rate is greater than 85%) | 5 (Level 5: the growth inhibition rate is greater than 85%) | 5 (Level 5: the growth inhibition rate is greater than 85%) | 5 (Level 5: the growth inhibition rate is greater than 85%) | 5 (Level 5: the growth inhibition rate is greater than 85%) |
| COC(=O)[C@@H](C)Oc1ncc(Cl)c(N)c1C [Compound 2-28] | 5 (Level 5: the growth inhibition rate is greater than 85%) | 5 (Level 5: the growth inhibition rate is greater than 85%) | 5 (Level 5: the growth inhibition rate is greater than 85%) | 5 (Level 5: the growth inhibition rate is greater than 85%) | 5 (Level 5: the growth inhibition rate is greater than 85%) |
